Structures can show the parent of a compound that is named as a salt.

Test in all cases: MIC, NCCLS broth microdilution
Holding throughout (format): cell-based
On the technique in general: In broth dilution the organism is exposed to a series of concentrations in liquid medium.

Experiment [1] has as its system Stenotrophomonas malthophilia 1AC736. Conditions: Stenotrophomonas malthophilia 1AC736; MIC of antibiotic compound 1 with the labelled bridged monobactam of formula II and clavulanate, 4 mg/L each.
Experiment [2] concerns Klebsiella pneumoniae CF104. Conditions: MIC of antibiotic compound 1 with the labelled bridged monobactam of formula II and clavulanate, 4 mg/L each.
Experiment [3] has as its system Serratia marcescens S6. Conditions: MIC of antibiotic compound 1 with the labelled bridged monobactam of formula II and clavulanate, 4 mg/L each.
Experiment [4] relates to Pseudomonas aeruginosa 1973E. Conditions: MIC of antibiotic compound 1 with the labelled bridged monobactam of formula II and clavulanate, 4 mg/L each. Here is the method: Antimicrobial activity of the compounds and of their combinations was determined against a selection of organisms according to the standard procedures described by the National Committee for Clinical Laboratory Standards (National Committee for Clinical Laboratory. Standards (2000). Methods for Dilution Antimicrobial Susceptibility Tests for Bacteria That Grow Aerobically-Fifth Edition: Approved Standard M7-A5. NCCLS, Wayne, Pa., USA).
In all cases the final concentration of DMSO incubated with the bacteria is less than or equal to 1%. […] Plates were incubated overnight at an appropriate temperature (30° C. or 37° C.) and optical densities assessed by eye. The MIC value is defined as the lowest compound concentration completely inhibiting visible growth of the test organism. When combinations between compounds of formula I with compounds of formula II and are evaluated the compounds of formula I are tested in dilution series as described above while the compounds of formula II and III-XIII were present in all wells at a constant concentration of 4 μg/mL each.

Experiment [5] relates to Pseudomonas aeruginosa MK1184. Particulars: MIC of antibiotic compound 1 with the labelled bridged monobactam of formula II and clavulanate, 4 mg/L each.
Experiment [6] has as its system Acinetobacter sp. J2. Conditions: Acinetobacter sp. J2; MIC of antibiotic compound 1 with the labelled bridged monobactam of formula II and clavulanate, 4 mg/L each.
The test system of experiment [7] is Enterobacter cloacae P99. Conditions: MIC of antibiotic compound 1 with the labelled bridged monobactam of formula II and clavulanate, 4 mg/L each.

On to `O=C(Nc1ccc2[nH]c(=O)[nH]c2c1)N1CC[C@@H]2[C@H]1C(=O)N2S(=O)(=O)[O-].[Na+]` [Compound 319, Sodium(1S,5R)-7-oxo-2-[N-(2-oxo(3-hydrobenzimidazol-5-yl))carbamoyl]-2,6-diazabicyclo[3.2.0]heptane-6-sulfonate], for which the “MIC of antibiotic at fixed inhibitor concentration (4 mg/L)” value was 0.125 µg/mL in experiment [1]; 0.25 µg/mL in experiment [2]; 0.25 µg/mL in experiment [3]; 4 µg/mL in experiment [4]; more than 32 µg/mL in experiment [5]; more than 32 µg/mL in experiment [6]. Moreover, the “MIC of antibiotic at fixed inhibitor concentration (4 mg/L)” value in experiment [7] turned out to be 16 µg/mL.
In the case of `NC(=O)CNC(=O)c1ccc[n+](CC(=O)N2CC[C@@H]3[C@H]2C(=O)N3S(=O)(=O)[O-])c1` [Compound 108, (1S,5R)-2-(2-{3-[N-(carbamoylmethyl)carbamoyl]pyridinium}acetyl)-7-oxo-2,6-diazabicyclo[3.2.0]heptane-6-sulfonate, inner salt], the “MIC of antibiotic at fixed inhibitor concentration (4 mg/L)” value in experiment [1] is 0.125 µg/mL; in experiment [2], 1 µg/mL; in experiment [3], 0.25 µg/mL; in experiment [4], 4 µg/mL; in experiment [5] it was more than 32 µg/mL; in experiment [6], more than 32 µg/mL. The “MIC of antibiotic at fixed inhibitor concentration (4 mg/L)” value in experiment [7] is 4 µg/mL.
In the case of `Cc1cc[n+](CC(=O)N2CC[C@@H]3[C@H]2C(=O)N3S(=O)(=O)[O-])cc1C` [Compound 121, (1S,5R)-2-[2-(3,4-dimethylpyridinium)acetyl]-7-oxo-2,6-diazabicyclo[3.2.0]heptane-6-sulfonate, inner salt], the “MIC of antibiotic at fixed inhibitor concentration (4 mg/L)” value is 0.25 µg/mL in experiment [1]; 0.25 µg/mL in experiment [2]; 0.25 µg/mL in experiment [3]; 4 µg/mL in experiment [4]; 16 µg/mL in experiment [5]; more than 32 µg/mL in experiment [6]. In experiment [7], the “MIC of antibiotic at fixed inhibitor concentration (4 mg/L)” value came out at 32 µg/mL.
Regarding `CCOC(=O)c1cccc(NC(=O)N2CC[C@@H]3[C@H]2C(=O)N3S(=O)(=O)[O-])c1.[Na+]` [Compound 320, Sodium(1S,5R)-2-{N-[3-(ethoxycarbonyl)phenyl]carbamoyl}-7-oxo-2,6-diazabicyclo[3.2.0]heptane-6-sulfonate], the “MIC of antibiotic at fixed inhibitor concentration (4 mg/L)” value was 0.125 µg/mL in experiment [1]; 0.5 µg/mL in experiment [2]; 0.25 µg/mL in experiment [3]; 8 µg/mL in experiment [4]; more than 32 µg/mL in experiment [5]; more than 32 µg/mL in experiment [6]. In experiment [7], the “MIC of antibiotic at fixed inhibitor concentration (4 mg/L)” value amounted to 8 µg/mL.
In the case of `O=C(Nc1ccccc1)N1CC[C@@H]2[C@H]1C(=O)N2S(=O)(=O)[O-].[Na+]` [Compound 301], the “MIC of antibiotic at fixed inhibitor concentration (4 mg/L)” value in experiment [1] was 0.125 µg/mL; in experiment [2], 1 µg/mL; in experiment [3], 0.25 µg/mL; in experiment [4], 4 µg/mL; in experiment [5], more than 32 µg/mL; in experiment [6] it was 8 µg/mL. The “MIC of antibiotic at fixed inhibitor concentration (4 mg/L)” value in experiment [7] worked out at 16 µg/mL.
